Source: PMC3585965 (Drugs in R&D, 2012)

Experiments:
[1] = cited from earlier work
[2] = Study 2: pharmacokinetic drug-drug interaction GLPG0259 / methotrexate; assay type: in vivo, human; conditions: methotrexate 7.5 mg

- Cmax point estimate, with vs without GLPG0259 ([2]; day 14 (GLPG0259 50 mg) vs day -7): 89.63%
- AUC∞ point estimate, with vs without GLPG0259 ([2]; day 14 vs day -7): 118.22%
- t1/2,λz point estimate, with vs without GLPG0259 ([2]; day 14 vs day -7): 110.64%
Compound: CN(Cc1cnc2nc(N)nc(N)c2n1)c1ccc(C(=O)N[C@@H](CCC(=O)O)C(=O)O)cc1 [methotrexate]
- t1/2,λz, range of boundary values reported in the literature [1]: 6 to 69 h
